Data as given in PMC12036875, “Mitochondria-targeting natural product rhein conjugated with dichloroacetate as the dual inhibitor of glycolysis and oxidative phosphorylation to off energize cancer cells and induce ROS storm” (Theranostics, 2025).

Key:
4T1 cells [1] = test: Cell apoptosis assay (Annexin V-Alexa Fluor 647/PI flow cytometry); assay type: cell-based, Mouse; details: 6.25 μM, 24 h
Procedure: Correspondingly, the fall of intracellular ATP amount and the release of Cyt C directly drove cells into apoptosis. Flow cytometry apoptosis assay was conducted on the 4T1 cells after culture with different drugs at 6.25 μM for 24 h. The treated cells were stained with Annexin V-Alexa Flour 647 and PI. […] Since the antitumor effect could only be achieved when DCA was used in high dose, it is in agreement with reported literature. Similar to rhein group, the apoptosis rate in R + D group increased to approximately 12%.
Annexin V/PI staining was used to analyze the apoptosis of cancer cells. 4T1 cells were seeded into 6-well plates at a density of 10 × 10^4 cells per well. The cells were permitted to resume exponential growth for 24 h and treated with various drugs. After another 24 h incubation, the supernatant was collected in 1.5 mL tubes. The cells were treated with 100 μL of 0.25% Trypsin-EDTA for 2 min, subsequently 300 μL fresh medium were added which was combined with the corresponding supernatant. The cells were obtained following centrifugation at 434 G for 5 min and washed twice with PBS, and then resuspended in 500 μL of binding buffer (1 ×). The cells were stained with Annexin V/Alexa Fluor 647 and PI (20 μg/mL) for 5 min at room temperature in the dark. The fluorescence signal was immediately detected by flow cytometry and the data were analyzed by FlowJo software.

4T1 cells [2] = test: ROS generation assay; assay type: cell-based, Mouse; details: for intracellular ROS (DCFH-DA fluorescence intensity): 6.25 μM, 6 h
Procedure: Rhein is thought to trigger the generation of ROS inside cells by inhibiting mitochondrial complex II, blocking electron transfer from succinate to ubiquinone, which leads to electron leakage at the flavoprotein site, [32]. Therefore, we investigated the ROS production within 4T1 cells in control, DCA, rhein, R + D and Rhein-DCA groups. […] Then, the cellular superoxide radical anion type of ROS production was further detected using dihydroethidium (DHE) fluorescence dyes after incubation with 4T1 cells. […] The flow cytometry was used to further confirm the types of reactive oxygen species, including singlet oxygen (^1O2) and hydroxyl radicals (·OH). The ^1O2 increased greatly about 2.4-fold compared with the control group, and ·OH increased about 1.4-fold (Figure 5D-E). […] Due to the conjugating of rhein, the more mitochondrial accumulation and enhanced PDK inhibition activity of DCA promoted the energy metabolism to redirect towards OXPHOS, increased the mitochondrial electron flux, and amplified the generation of ROS. Excessive ROS would cause oxidative damage of mitochondria and further frustrate OXPHOS, leading to the effectively suppress for cancer cells.
The generation of intracellular ROS within 4T1 cells was measured with DCFH-DA, BBoxiProbe O28 and BBoxiProbe O68 and evaluated by flow cytometry. 4T1 cells were seeded into 6-well plates at a density of 10 × 10^4 cells per well and cultured at 37 °C for 24 h. The cells were treated with rhein (6.25 μM), DCA (6.25 μM), R + D (6.25 μM + 6.25 μM) and Rhein-DCA (6.25 μM) for another 6 h. Cells were detached from the plates with 0.25% Trypsin-EDTA after washed twice with PBS, flowing staining with DCFH-DA (10 μM), BBoxiProbe O28 (Ex = 516 nm, Em = 606 nm) and BBoxiProbe O68 (Ex = 516 nm, Em = 606 nm) for 20 min at 37 °C in the dark.
The level of intracellular superoxide radical anion in 4T1 cells was analyzed with DHE by confocal microscope. 4T1 cells were seeded into confocal dishes with a density of 10 × 10^4 cells per well and treated with various drugs for 24 h and washed twice with PBS, flowing staining with DHE probe (5 μM) for 30 min at 37 °C in the dark. The cellular nuclei were stained with Hoechst 33342 for 10 min at room temperature. The fluorescent images were observed by confocal microscope.

[3] = Tissue distribution after oral administration; assay type: in vivo; details: 4T1-bearing Balb/c mice, oral 20 mg/kg
Procedure: 4T1-bearing Balb/c mice were orally administered with Rhein-DCA (20 mg/kg), major organs (heart, liver, spleen, lung, kidney) and tumor tissues were harvested at 2, 6, and 24 h after administration. […] The Rhein-DCA conjugate could be absorbed rapidly and broadly distributed in major organs tissue after administration.
4T1-bearing Balb/c mice were orally administered with Rhein-DCA (20 mg/kg), major organs (heart, liver, spleen, lung, kidney) and tumor tissues were harvested and weighed at 2, 6, and 24 h after administration. Each organ was homogenized with sonication in ice bath (power 400 W, the duration of sonication is 3 s, the interval duration of 3 s, total sonication time of 20 min). Centrifuge the homogenate at 13000 G for 10 min at 4°C to obtain the supernatant for HPLC.

4T1 cells [4] = test: Intracellular stability by HPLC; assay type: in vitro ADME, Mouse
Procedure: (§1) Stability of drugs is vital indexes for anticancer application. The stability of Rhein-DCA conjugate in vitro was performed by dispersing it in 2.5% dimethyl sulfoxide (DMSO)-PBS at room temperature for 0, 2, 6 and 12 h. […] Furthermore, we also quantitatively analyzed the intracellular stability of Rhein-DCA using high-performance liquid chromatography (HPLC). After 4 h of uptake, the intracellular concentration of Rhein-DCA was 0.095 μg/10^6 cells within 4T1 cells.
(§2) UV-Vis spectra were used to investigate the stability of Rhein-DCA conjugate. The Rhein-DCA was dispersed in 2.5% DMSO-PBS at room temperature, and the absorption spectrum was monitored at 0, 2, 6 and 12 h. High performance liquid chromatography (HPLC) was used to investigate the intracellular stability of Rhein-DCA conjugate. 4T1 cells were seeded in cell culture dish (diameter of 10 cm) at a density of 2 × 10^6 cells per dish and cultured in the incubator for 24 h. Then the cells were further treated with Rhein-DCA conjugate at a concentration of 11 μg/mL for 4 h. After removing media and washing the cells three times with PBS to remove the residual Rhein-DCA, the cells were incubated for another 2 h. Then, the cells were collected and washed twice with PBS. The cells were suspended in 1 mL methanol to obtain cell lysates by three freeze-thaw. Then the supernatant was collected after centrifugation at 13000 G for 10 min for HPLC analysis. A C18 column was used with methanol / 0.1% H₃PO₄ (83:17) as the mobile phase, flow rate 1.0 mL/min, fluorescence detector with an excitation wavelength of 443 nm and an emission wavelength of 530 nm.

[5] = Stability in 2.5% DMSO-PBS by UV-Vis absorption; assay type: physicochemical; details: room temperature, 0-12 h
Procedure: as §1
as §2, with “Then, the cells were collected and washed twice with PBS. The cells were suspended in 1 mL methanol to obtain cell lysates by three freeze-thaw. Then the supernatant was collected after centrifugation at 13000 G for 10 min for HPLC analysis.” left out

SMILES | apoptosis in comparison with control group, in words (4T1 cells [1]) | intracellular ROS (DCFH-DA fluorescence intensity) (4T1 cells [2]; flow cytometry) | apoptosis rate (4T1 cells [1]) [%] | intra-tumoral retention [3] | systemic clearance from major organs by 24 h [3] | Tmax ([3]; mouse, tumor, sampled at 2, 6, 24 h, read-out: time of peak concentration in tumors) [h] | intracellular concentration after 4 h of uptake (4T1 cells [4]; 11 μg/mL, 4 h) [μg/10^6 cells] | residual intracellular concentration after removing drug and incubating another 2 h (4T1 cells [4]; 4 h uptake then 2 h drug-free) [μg/10^6 cells] | intracellular degradation rate (4T1 cells [4]; within 2 h) | superoxide radical anion (DHE fluorescence) (4T1 cells [2]; 24 h, CLSM) | ^1O2 increase compared with control group (4T1 cells [2]; flow cytometry) | ·OH increase compared with control group (4T1 cells [2]; flow cytometry) | stability (UV-Vis absorption spectra) [5]
O=C(O)C(Cl)Cl [DCA, Dichloroacetate] | no obvious changes | – | – | – | – | – | – | – | – | – | – | – | –
O=C(O)c1cc(O)c2c(c1)C(=O)c1cccc(O)c1C2=O [Rhein, 4,5-dihydroxyanthraquinone-2-carboxylic acid] | – | slight enhancement | – | – | – | – | – | – | – | – | – | – | –
O=C(OCCOC(=O)C(Cl)Cl)c1cc(O)c2c(c1)C(=O)c1cccc(O)c1C2=O [Rhein-DCA] | – | stronger fluorescence signal | 37.4 | remaining quantifiable up to 24 h | extremely completed | 6 | 0.095 | 0.080 | approximately 15.7% | remarkable red intensity | about 2.4 fold | about 1.4 fold | relatively stable
